Assay results as given in patent US20230390270A1, “METHODS FOR TREATING REMITTING MULTIPLE SCLEROSIS” (BIOGEN MA INC., priority 2020, published 2023).

How the values were obtained:
[1] = system: rat A2B5+ oligodendrocytes / DRG neuron co-culture; assay: OPC/DRG co-culture myelination assay (MBP Western blot); type: cell-based; conditions: 13 days co-culture
Method: Embryonic dorsal root ganglia (DRG) dissected from embryonic day 14 (E14) to day 17 (E17) Sprague Dawley rats, were plated on poly-L-lysine (100 μg/ml)-coated cover slips for 2 weeks and grown in Neurobasal medium supplemented with B27 (Life technologies). To remove proliferating glial cells, cultures were pulsed twice with fluorodeoxyuridine (20 μM) from days 2-6 and from days 8-10. Then rat A2B5+ oligodendrocytes were added to DRG neuron drop cultures in the presence or absence of compounds at 37° C. with 5% CO2 for 13 days. The culture media (Neurobasal medium supplemented with B27 and 100 ng/ml nerve growth factor (NGF)) with fresh compounds were changed twice per week. Myelination is determined by Western blotting to quantify MBP level.

[2] = system: LPC induced corpus callosum demyelination; assay: LPC induced corpus callosum demyelination model; type: in vivo; conditions: rat LPC corpus callosum model
[3] = system: cuprizone demyelination in the corpus callosum; assay: Cuprizone/rapamycin demyelination model; type: in vivo, mouse; conditions: oral gavage daily in the last 2 weeks of cuprizone/rapamycin treatment
Method: Nine week-old C57/BL6 mice were fed with chow pellets containing 0.3% cuprizone (Harlan) and injected with rapamycin intraperitoneally for 6 weeks (10 mg/kg, 5 days/week). Animals were treated with Compound 1 by oral gavage daily in the last 2 weeks of cuprizone/rapamycin treatment. Animals were sacrificed at the end of the last treatment and brains were dissected to determine the effect of Compound 1 on remyelination in the corpus callosum (white matter) and cerebral cortex regions. Coronal slices (septostriatal section, 1 mm thickness) through the corpus callosum were cut, then cut on the midsagittal plane and embedded in epon, oriented to visualize the entire cross-section of the midsagittal corpus callosum. Myelinated axons in the corpus callosum lesions were quantified by toluidine blue staining. ** p<0.01, *** p<0.001. […] Error bars denote the standard error of the mean. N=39 for the study.

circulating cholesterol [4] = assay: 28-day multiple-dose study in healthy volunteers: circulating cholesterol and serum sterols; type: in vivo, human
Method: (§1) Forty-two healthy volunteers received Compound 1 QD for 28 days (or before early withdrawal), with 6 individual participants per cohort receiving 1 mg (Cohort 1), 3 mg (Cohort 2), 10 mg (Cohort 3), 30 mg (Cohort 4), 60 mg loading dose with 10 mg maintenance dosing (Cohort 5) Compound 1, 60 mg (Cohort 6), or 90 mg loading dose on Day 1 and Day 2 with 30 mg maintenance dosing (Cohort 7). There were also 14 participants who received placebo in the study; 1 participant in Cohort 4 was misdosed on Day 19 and appeared to have received at least one 30 mg dose of Compound 1. The following protocol deviations were reported for participants in Cohorts 1 through 5: they received predose water ad lib (not restricted for 1 hour before and 1 hour after dose) and a meal administered 30 minutes postdose (not 4 hours postdose). A total of 49 participants completed treatment, including 37 participants who received active treatment.
(§2) Participants received the first dose of study treatment (Compound 1 or placebo) on Day 1 and continued to receive once-daily study treatment through Day 28. Participants remained in the clinic throughout the dosing period. Participants were discharged on Day 29 after completing all assessments.
Blood was periodically withdrawn from each volunteer and immediately stored at −80° C. For measuring metabolite concentrations in human serum, the samples were centrifuged and the resulting supernatant was used for further analysis.
Free oxysterols were extracted from the samples with methanol using the Biocrates Kit filter plate. The plate was loaded with an internal standard mixture beforehand. The metabolite concentrations were determined by UHPLC-MS/MS with multiple reaction monitoring (MRM) in a positive mode using a SCIEX API 5500 QTRAP® (AB SCIEX, Darmstadt, German) instrument with electrospray ionization (ESI). Data were quantitated using appropriate mass spectrometry software and imported in Biocrates Met/DQ™ software for further analysis.

[5] = Plasma concentration of Compound 1 in healthy volunteers; type: in vivo, human
Method: as §1
Based on these observations, a population PK/PD model was developed using Monolix to describe circulating cholesterol concentration as a function of plasma concentration of Compound 1 and exposure. The model was developed from cholesterol data from the study described above (Study 1) as well as two additional clinical studies (Study 2 and Study 3) in healthy volunteers. […]

rat OPCs = assay: Sterol metabolite levels in rat OPC cultures (Metabolon HD4); type: cell-based; conditions: rat OPC culture
Method: Enriched populations of oligodendrocytes from female Sprague Dawley postnatal day 2 (P2) rats were grown in culture. Briefly, the forebrain was dissected and placed in Hank's buffered salt solution (HBSS) (Life technologies). The tissue was cut into 1 mm fragments and incubated at 37° C. for 15 min in 0.01% trypsin and 10 μg/ml DNase. Dissociated cells were plated on poly-D-lysine (PDL)-coated T75 tissue culture flasks and grown at 37° C. for 10 days in Dulbecco's Modified Eagle Medium (DMEM) with 20% fetal calf serum (Life technologies). Oligodendrocyte precursors (A2B5+) were collected by shaking the flask overnight at 200 rpm at 37° C., resulting in a 95% pure population. Cultures were maintained in a defined growth medium (high glucose DMEM, 0.1% BSA, 50 ug/ml Apo-transferrin, 5 ug/ml insulin, 30 nM sodium selenite, 10 nM biotin and hydrocortisone) with 10 ng/ml fibroblast growth factor/platelet-derived growth factor (FGF/PDGF) (Peprotech) for 2-3 days. For assessing the ability of Compound 1 to promote the differentiation of rat A2B5+ progenitor cells into mature myelin basic protein positive (MBP+) myelinating oligodendrocytes, A2B5+ cells were plated into 10-cm PDL coated culture plates in FGF/PDGF free growth medium supplemented with 10 ng/ml CNTF and 15 nM T3 and were immediately treated for with Compound 1. The cell pellets were collected at 24 hours and 72 hours in culture and stored at −80° C. The cell pellets were subsequently shipped to Metabolon (Morrisville, NC, USA) and maintained at −80° C. during shipping and storage until processed. The cell pellet samples were extracted with methanol under vigorous shaking for 2 min (Glen Mills GenoGrinder 2000) to precipitate protein and dissociate small molecules bound to protein or trapped in the precipitated protein matrix, followed by centrifugation to recover chemically diverse metabolites. The resulting extract were next aliquot and analyzed on Metabolon's HD4 platform. Several types of quality control samples, including recovery standards added prior to extraction, technical replicates from a pool combined from each experimental sample, process and solvent blanks, and spiked a cocktail of QC standards, were applied during sample preparation and analysis for quality assessment and filtering failed samples.

[6] = system: human OPC-rat DRG co-culture; assay: Human OPC-rat DRG co-culture myelination (MBP ICC); type: cell-based; conditions: 0.02, 0.2, or 2 μM vs DMSO control
Method: Embryonic dorsal root ganglia (DRG), dissected from embryonic day 14 (E14) to day 17 (E17) Sprague Dawley rats, were plated on poly-L-lysine (100 μg/ml)-coated cover slips for 2 weeks and grown in Neurobasal medium supplemented with B27 (Life Technologies). To remove proliferating glial cells, cultures were pulsed twice with fluorodeoxyuridine (20 μM) from days 2-6 and from days 8 to 10. Then human OPCs, prepared as described above, were added to DRG neuron drop cultures. The culture media for rat OPC-DRG co-culture is Neurobasal medium supplemented with B27 and 100 ng/ml NGF with fresh compounds changed twice per week. The culture media for human OPC-rat DRG co-culture is the proliferation media for human OPCs without purmorphamine and FGF/PDGF. Compound 1 (0.02, 0.2, or 2 μM) or DMSO control treatment started 1 day after OPCs were added to DRG culture. To visualize myelination, cultures were fixed by 4% paraformaldehyde (PFA) and labeled with anti-myelin basic protein (MBP) antibodies to identify changes in myelination by ICC.

circulating cholesterol [7] = assay: Population PK/PD model (Monolix) of circulating cholesterol vs Compound 1 plasma concentration; design: species or system human
Description: Based on these observations, a population PK/PD model was developed using Monolix to describe circulating cholesterol concentration as a function of plasma concentration of Compound 1 and exposure. The model was developed from cholesterol data from the study described above (Study 1) as well as two additional clinical studies (Study 2 and Study 3) in healthy volunteers. In Study 2, thirty healthy volunteers received a single oral dose of Compound 1 with 6 individual participants per cohort receiving 3 mg (Cohort 1), 10 mg (Cohort 2), 30 mg (Cohort 3), 60 mg (Cohort 4), 100 mg (Cohort 5). There were also 9 participants who received placebo in the study. In Study 3, 8 healthy adult volunteers received a single dose of 30 mg of Compound 1.

human iPSC-derived OPCs = assay: Human iPSC-derived OPC differentiation (MBP+ cells); type: cell-based; conditions: 0.02 and 0.2 μM, 40 days
Method: Human induced pluripotent stem cell (iPSC) derived OPCs were maintained in proliferation media, composed of advanced DMEM-F12 supplemented with N2, B27, Glutamax, […] heparin (Sigma), 1 μM purmorphamine (Merck), 20 ng/ml FGF/PDGFa (Peprotech), 10 ng/ml IGF (Peprotech), and 60 ng/ml T3 (Sigma). To allow OPC differentiation, purmorphamine and FGF/PDGF were removed from the culture media. Compound 1 (0.02 and 0.2 μM) was incubated with human iPSC-derived OPCs in the differentiation media for 40 days.

[8] = molecular target: T1, sphingosine-1-phosphate receptor 4 (S1P4) (Homo sapiens, UniProt O95977); conditions: cited from earlier work
T1 sequence (O95977 1-384): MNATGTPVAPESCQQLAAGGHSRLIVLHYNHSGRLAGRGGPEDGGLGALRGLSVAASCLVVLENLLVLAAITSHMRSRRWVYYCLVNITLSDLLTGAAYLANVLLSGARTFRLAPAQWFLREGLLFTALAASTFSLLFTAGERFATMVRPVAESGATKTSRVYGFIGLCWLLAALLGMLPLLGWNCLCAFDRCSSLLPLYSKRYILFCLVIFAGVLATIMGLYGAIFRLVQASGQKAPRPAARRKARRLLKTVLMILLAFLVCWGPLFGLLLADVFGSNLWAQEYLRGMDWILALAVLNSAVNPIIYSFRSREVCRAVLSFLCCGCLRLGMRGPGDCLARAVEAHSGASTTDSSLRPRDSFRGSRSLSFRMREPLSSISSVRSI

[9] = system: LPC induced spinal cord demyelination; assay: LPC induced spinal cord demyelination model; type: in vivo, rat; conditions: oral, daily from Day 3, sacrifice Day 9
neutrophils = assay: Neutrophil and monocyte counts in the healthy volunteer study; type: in vivo, human
Method: as §1, §2

CC[C@H]1CC[C@@H](Oc2ccc3cc(CN4CCC(C(=O)O)CC4)ccc3c2)CC1 [Compound 1, 1-((6-(((1s,4s)-4-ethylcyclohexyl)oxy)naphthalen-2-yl)methyl)piperidine-4-carboxylic acid]
myelination (MBP level by Western blotting) [1]: promoted myelination in OPC/DRG co-culture assay in a dose-dependent manner
remyelination [2]: enhanced remyelination
remyelination (myelinated axons in corpus callosum lesions) [3]: dose dependent enhancement of remyelination
7-dehydrocholesterol (7-DHC) level (circulating cholesterol [4]; healthy human volunteers): causes accumulation of 7-dehydrocholesterol
average decrease in total cholesterol (circulating cholesterol [4]; healthy volunteers, 60 mg dose, Study 1): approximately 20%
total circulating cholesterol (circulating cholesterol [4]; healthy volunteers, QD over 28 days, FIG. 1 (10, 30, 60 mg per day vs placebo)): gradual, time- and dose-dependent reduction
steady-state concentration of Compound 1 ([5]; daily dose of 60 mg): about 3 μg/mL
time of increase to steady-state concentrations of Compound 1 in plasma ([5]; daily dosing): approximately 15 days
7-DHC vs vehicle control (rat OPCs; 24 hours): 8.3 folds
cholesterol vs vehicle control (rat OPCs; 24 hours): 0.64 folds
desmosterol vs vehicle control (rat OPCs; 24 hours): 0.44 folds
7-DHC vs vehicle control (rat OPCs; 72 hours): 12.86 folds
cholesterol vs vehicle control (rat OPCs; 72 hours): insignificant change
desmosterol vs vehicle control (rat OPCs; 72 hours): 0.4 folds
amount of MBP+ myelinated axon clusters relative to control [6]: increased
concentration of circulating cholesterol in the model (circulating cholesterol [7]; by daily dose): reduced at all daily doses higher than 10 mg
predicted decrease in circulating cholesterol (circulating cholesterol [7]; model prediction, 60 mg QD): approximately 35%
EC50 for reduction in circulating cholesterol concentration (circulating cholesterol [7]; population PK/PD model, plasma concentration of Compound 1): about 3 μg/mL
number of MBP+ cells relative to control (human iPSC-derived OPCs): increased
S1P4 activity [8]: known inhibitor
dose for 90% of maximum observed biologic effect (ED90) [9]: 3 mg/kg
minimal efficacious dose (remyelinated axon fibers in the lesions) [9]: 0.3 mg/kg
remyelination (myelinated axons, toluidine blue) [9]: enhanced remyelination in a dose dependent manner
absolute monocyte counts (neutrophils; 60 mg QD, except the patient who discontinued): remained throughout the study in the normal range
other participants with decline in absolute neutrophil count (neutrophils; Cohort 4, 30 mg): 6 participants
other participants with decline in absolute neutrophil count (neutrophils; Cohort 5, 60 mg loading dose followed by 10 mg maintenance dose): 6 participants
other participants with decline in absolute neutrophil count (neutrophils; Cohort 6): 5 participants
participants with neutropenia AE leading to discontinuation (neutrophils; Cohort 6, 60 mg): 1 participant
other participants with decline in absolute neutrophil count (neutrophils; Cohort 7): 5 participants
participants with neutropenia AE leading to discontinuation (neutrophils; Cohort 7, 90 mg loading dose followed by 30 mg maintenance dose): 1 participant
other participants with decline in absolute neutrophil count (neutrophils; all doses ≥30 mg): 22 participants
absolute neutrophil count from baseline (neutrophils; doses ≥30 mg): dose-dependent decline
extent of neutrophil count decline (neutrophils; low doses <30 mg, Cohorts 1, 2, and 3): indistinguishable from placebo control
participants who developed CTCAE grade 3 neutropenia (neutrophils; whole study of Example 1): Two of 56
